Measurements from the supplement of paper PMC10307832.

What was measured:
Assay in all cases: relative viability (nuclei count vs DMSO), 5 days (fraction); higher = more cells survive
[1] = tested on: NCI-H1395
In short: (§1)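 Lung cancer cell lines were pin-tool dosed in 1536-well plates on the day after seeding, with either a lone drug or a fixed anchor-drug dose plus five library-drug doses (not always all listed) in √10 steps. Nuclei were counted on 4× images after 5 days. Relative viability is the ratio of treated-well to vehicle-well nuclei counts, with each value a median of duplicate plates.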

[2] = tested on: NCI-H2405
In short: as §1

[3] = tested on: NCI-H661
In short: as §1

[4] = tested on: HARA
In short: as §1

[5] = tested on: NCI-H1355
In short: as §1

[6] = tested on: BEN
In short: as §1

[7] = tested on: NCI-H1437
In short: as §1

[8] = tested on: HCC-827
In short: as §1

[9] = tested on: NCI-H1792
In short: as §1

[10] = tested on: NCI-H647
In short: as §1

[11] = tested on: NCI-H2087
In short: as §1

[12] = tested on: NCI-H2009
In short: as §1

[13] = tested on: NCI-H1993
In short: as §1

[14] = tested on: NCI-H1734
In short: as §1

[15] = tested on: SK-MES-1
In short: as §1

[16] = tested on: HCC-366
In short: as §1

[17] = tested on: SK-LU-1
In short: as §1

[18] = tested on: EKVX
In short: as §1

[19] = tested on: LOU-NH91
In short: as §1

Q: How did the relative viability ([1]; first compound 0.04 µM) turn out when `Cc1sc2c(c1C)C(c1ccc(Cl)cc1)=N[C@@H](CC(=O)OC(C)(C)C)c1nnc(C)n1-2` [JQ1] + C[C@]1(O)C[C@@H](c2nc(-c3ccc4ccc(-c5ccccc5)nc4c3)c3c(N)nccn32)C1 [Linsitinib] (partner 1 µM) was run?
A: 0.983

Q: And the relative viability ([1]; first compound 0.1265 µM)?
A: 0.797

Q: What about the relative viability ([1]; first compound 0.4 µM) of the same molecule?
A: 0.788

Q: What about the relative viability ([1]; first compound 1.265 µM) of the same molecule?
A: 0.562

Q: What about the relative viability ([1]; first compound 4 µM) of the same molecule?
A: 0.486

Q: And the relative viability ([2]; first compound 0.04 µM)?
A: 0.919

Q: And the relative viability ([2]; first compound 0.4 µM)?
A: 0.779

Q: And the relative viability ([2]; first compound 1.265 µM)?
A: 0.535

Q: What about the relative viability ([2]; first compound 4 µM) of the same molecule?
A: 0.537

Q: What about the relative viability ([3]; first compound 0.04 µM) of the same molecule?
A: 0.635

Q: What about the relative viability ([3]; first compound 0.1265 µM) of the same molecule?
A: 0.512

Q: What about the relative viability ([3]; first compound 0.4 µM) of the same molecule?
A: 0.391

Q: And the relative viability ([3]; first compound 1.265 µM)?
A: 0.305

Q: And the relative viability ([3]; first compound 4 µM)?
A: 0.352

Q: What about the relative viability ([4]; first compound 0.04 µM) of the same molecule?
A: 0.902

Q: What about the relative viability ([4]; first compound 0.1265 µM) of the same molecule?
A: 0.624

Q: And the relative viability ([4]; first compound 0.4 µM)?
A: 0.399

Q: What about the relative viability ([4]; first compound 1.265 µM) of the same molecule?
A: 0.205

Q: What about the relative viability ([4]; first compound 4 µM) of the same molecule?
A: 0.163

Q: What about the relative viability ([5]; first compound 0.04 µM) of the same molecule?
A: 0.813

Q: And the relative viability ([5]; first compound 0.1265 µM)?
A: 0.817

Q: What about the relative viability ([5]; first compound 0.4 µM) of the same molecule?
A: 0.814

Q: And the relative viability ([5]; first compound 1.265 µM)?
A: 0.574

Q: What about the relative viability ([5]; first compound 4 µM) of the same molecule?
A: 0.351

Q: And the relative viability ([6]; first compound 0.04 µM)?
A: 0.886

Q: What about the relative viability ([6]; first compound 0.1265 µM) of the same molecule?
A: 0.742

Q: And the relative viability ([6]; first compound 0.4 µM)?
A: 0.524

Q: What about the relative viability ([6]; first compound 1.265 µM) of the same molecule?
A: 0.347

Q: What about the relative viability ([6]; first compound 4 µM) of the same molecule?
A: 0.224

Q: What about the relative viability ([7]; first compound 0.04 µM) of the same molecule?
A: 0.897

Q: And the relative viability ([7]; first compound 0.1265 µM)?
A: 0.804

Q: And the relative viability ([7]; first compound 0.4 µM)?
A: 0.481

Q: What about the relative viability ([7]; first compound 1.265 µM) of the same molecule?
A: 0.228

Q: And the relative viability ([7]; first compound 4 µM)?
A: 0.18

Q: What about the relative viability ([8]; first compound 0.04 µM) of the same molecule?
A: 0.921

Q: What about the relative viability ([8]; first compound 0.4 µM) of the same molecule?
A: 1.16

Q: And the relative viability ([8]; first compound 1.265 µM)?
A: 0.958

Q: And the relative viability ([8]; first compound 4 µM)?
A: 0.862

Q: What about the relative viability ([9]; first compound 0.04 µM) of the same molecule?
A: 0.587

Q: And the relative viability ([9]; first compound 0.4 µM)?
A: 0.569

Q: And the relative viability ([9]; first compound 1.265 µM)?
A: 0.31

Q: And the relative viability ([9]; first compound 4 µM)?
A: 0.274

Q: And the relative viability ([10]; first compound 0.04 µM)?
A: 1.12

Q: What about the relative viability ([10]; first compound 0.1265 µM) of the same molecule?
A: 0.754

Q: And the relative viability ([10]; first compound 0.4 µM)?
A: 0.568

Q: What about the relative viability ([10]; first compound 1.265 µM) of the same molecule?
A: 0.151

Q: What about the relative viability ([10]; first compound 4 µM) of the same molecule?
A: 0.16

Q: And the relative viability ([11]; first compound 0.04 µM)?
A: 1.02

Q: And the relative viability ([11]; first compound 0.4 µM)?
A: 0.69

Q: And the relative viability ([11]; first compound 1.265 µM)?
A: 0.456

Q: And the relative viability ([11]; first compound 4 µM)?
A: 0.508

Q: What about the relative viability ([12]; first compound 0.04 µM) of the same molecule?
A: 1.13

Q: And the relative viability ([12]; first compound 0.1265 µM)?
A: 0.995

Q: What about the relative viability ([12]; first compound 0.4 µM) of the same molecule?
A: 0.724

Q: And the relative viability ([12]; first compound 1.265 µM)?
A: 0.279

Q: And the relative viability ([12]; first compound 4 µM)?
A: 0.263

Q: What about the relative viability ([13]; first compound 0.04 µM) of the same molecule?
A: 0.729

Q: And the relative viability ([13]; first compound 0.1265 µM)?
A: 0.855

Q: What about the relative viability ([13]; first compound 0.4 µM) of the same molecule?
A: 0.809

Q: What about the relative viability ([13]; first compound 1.265 µM) of the same molecule?
A: 0.829

Q: And the relative viability ([13]; first compound 4 µM)?
A: 0.736

Q: And the relative viability ([14]; first compound 0.04 µM)?
A: 0.831

Q: What about the relative viability ([14]; first compound 0.1265 µM) of the same molecule?
A: 0.823

Q: And the relative viability ([14]; first compound 0.4 µM)?
A: 0.879

Q: And the relative viability ([14]; first compound 1.265 µM)?
A: 0.63

Q: What about the relative viability ([14]; first compound 4 µM) of the same molecule?
A: 0.418

Q: What about the relative viability ([15]; first compound 0.04 µM) of the same molecule?
A: 1.02

Q: What about the relative viability ([15]; first compound 0.1265 µM) of the same molecule?
A: 0.752

Q: And the relative viability ([15]; first compound 0.4 µM)?
A: 0.862

Q: What about the relative viability ([15]; first compound 1.265 µM) of the same molecule?
A: 0.332

Q: And the relative viability ([15]; first compound 4 µM)?
A: 0.374

Q: What about the relative viability ([16]; first compound 0.04 µM) of the same molecule?
A: 0.6

Q: What about the relative viability ([16]; first compound 0.4 µM) of the same molecule?
A: 0.639

Q: And the relative viability ([16]; first compound 1.265 µM)?
A: 0.326

Q: What about the relative viability ([16]; first compound 4 µM) of the same molecule?
A: 0.193

Q: And the relative viability ([17]; first compound 0.04 µM)?
A: 1.16

Q: And the relative viability ([17]; first compound 0.1265 µM)?
A: 0.952

Q: What about the relative viability ([17]; first compound 0.4 µM) of the same molecule?
A: 0.782

Q: What about the relative viability ([17]; first compound 1.265 µM) of the same molecule?
A: 0.239

Q: And the relative viability ([17]; first compound 4 µM)?
A: 0.178

Q: What about the relative viability ([18]; first compound 0.04 µM) of the same molecule?
A: 0.935

Q: And the relative viability ([18]; first compound 0.1265 µM)?
A: 0.813

Q: What about the relative viability ([18]; first compound 0.4 µM) of the same molecule?
A: 1.01

Q: What about the relative viability ([18]; first compound 1.265 µM) of the same molecule?
A: 0.72

Q: And the relative viability ([18]; first compound 4 µM)?
A: 0.461

Q: What about the relative viability ([19]; first compound 0.04 µM) of the same molecule?
A: 0.905

Q: What about the relative viability ([19]; first compound 0.1265 µM) of the same molecule?
A: 0.777

Q: What about the relative viability ([19]; first compound 0.4 µM) of the same molecule?
A: 0.579

Q: And the relative viability ([19]; first compound 1.265 µM)?
A: 0.474

Q: And the relative viability ([19]; first compound 4 µM)?
A: 0.489
